Test results reported in paper PMC6112376, “Comprehensive Analyses and Prioritization of Tox21 10K Chemicals Affecting Mitochondrial Function by in-Depth Mechanistic Studies” (Environmental Health Perspectives, 2018).
Where a name gives a salt, the structure may show the parent alone. Read-outs that look alike come from different tables or passages of the source. Where a SMILES comes first, the peptide text is derived from it. [ ]: non-standard residue; d: D form. Orn = NCCC[C@H](N)C(=O)O

Legend:
HepG2 cells [1] = conditions: for IC50: read-out: MMP assays IC50 (µM) HepG2
rat primary hepatocytes [2] = experiment: MMP assay in rat primary hepatocytes; conditions: for IC50: read-out: MMP assays IC50 (µM) Rat Hepatocytes
rat primary hepatocytes [3] = tested on: rat primary hepatocytes
HepG2 cells [4] = conditions: cited from earlier work
HepG2 cells [5] = experiment: cells; conditions: Homo sapiens; for IC50: HepG2, read-out: MMP assays IC50 (µM) HepG2; for Emax: HepG2, read-out: MMP assays efficacy (%) HepG2
[6] = read-out: MMP assays IC50 (µM) qHTS-HepG2
[7] = read-out: MMP assays IC50 (µM), qHTS-HepG2
[8] = HepG2 cells, single number from one experiment

Row | Compound | MMP assays efficacy (%) HepG2 (HepG2 cells [1]) | IC50 (HepG2 cells [1]) | IC50 (rat primary hepatocytes [2]) | MMP assays efficacy (%) Rat Hepatocytes (rat primary hepatocytes [3]) | MMP assays efficacy (%) qHTS-HepG2 (HepG2 cells [4]) | IC50 (HepG2 cells [4]; [6]) | IC50 (HepG2 cells [4]; [7]) | MMP assays IC50 (µM) HepG2 (HepG2 cells [1]) | MMP assays IC50 (µM) Rat Hepatocytes (rat primary hepatocytes [2]) | MMP assays IC50 (µM) qHTS-HepG2 (HepG2 cells [4]) | MMP assays efficacy (%) HepG2 (HepG2 cells [1]; [8]) | IC50 (HepG2 cells [1]; [8]) | IC50 (rat primary hepatocytes [2]; rat hepatocytes, mean ± SD of three experiments) | IC50 (rat primary hepatocytes [2]; Rattus norvegicus, Hepatocyte) | IC50 (HepG2 cells [5]) | Emax (HepG2 cells [5])
1 | Cl.Nc1c2ccccc2nc2ccccc12.O | -115% | 21.8 µM | 8.51 ± 5.35 µM | -56±22% | -82±4% | 13.8 ± 1.75 µM |  |  |  |  |  |  |  |  |  | 
2 | O=C(c1ccc(OCCN2CCCCC2)cc1)c1c(-c2ccc(O)cc2)sc2cc(O)ccc12 [Raloxifene hydrochloride] | -127% | 7.94 µM | 20.9 ± 7.23 µM | -87±14% | -98±9% |  | 6.69 ± 1.65 µM |  |  |  |  |  |  |  |  | 
3 | CCCCCCCC/C=C\CCCCCCCC(=O)NCc1ccc(O)c(OC)c1 [Olvanil] | inactive |  |  | inactive | -74±8% |  | 13.5 ± 1.9 µM | inactive | inactive |  |  |  |  |  |  | 
4 | COc1cc([C@@H]2c3cc4c(cc3[C@H](O)[C@H]3COC(=O)[C@@H]23)OCO4)cc(OC)c1OC [Picropodophyllin;AXL-1717/NSC-36407] | -58% | 0.0548 µM |  | inactive | -56±10% |  | 0.14 ± 0.02 µM |  | inactive |  |  |  |  |  |  | 
5 | ClC1C(Cl)C(Cl)C(Cl)C(Cl)C1Cl (stereo not drawn) [alpha-1,2,3,4,5,6-Hexachlorocyclohexane] | inactive |  | 39.8 µM | -54±20% | -54±7% | 49 ± 6.35 µM |  | inactive |  |  |  |  |  |  |  | 
6 | CC1=C(/C=C/C(C)=C/C=C/C(C)=C/C(=O)Nc2ccc(O)cc2)C(C)(C)CCC1 | -92% | 4.89 µM |  | inactive | -100±0% | 3.4 ± 0.76 µM |  |  | inactive |  |  |  |  |  |  | 
7 | CCCCC(CC)C(=O)[O-].CCCCC(CC)C(=O)[O-].[Ba+2] (stereo not shown) [Barium bis(2-ethylhexanoate)] | inactive |  |  | -43±30% | -58±20% | 15.4 ± 10.3 µM |  | inactive | inactive |  |  |  |  |  |  | 
8 | CCCCCCCCCCCC(=O)[O][Sn]([CH2]CCC)([CH2]CCC)[O]C(=O)CCCCCCCCCCC [Dibutyltin dilaurate] | -86% | 27.5 µM | 22.4 ± 7.17 µM | -52+36% | inactive |  |  |  |  | inactive |  |  |  |  |  | 
9 | CCN1CCC2(CC1)COc1cc3c(cc12)N(C(=O)c1ccc(-c2ccc(-c4nnc(C)o4)cc2C)cc1)CC3.Cl | -111% | 19.9 µM | 40.9 ± 16 µM | -109±26% | -58±10% | 6.09 ± 2.54 µM |  |  |  |  |  |  |  |  |  | 
10 | C=C(C)C(=O)OCC(O)COc1ccc(C(C)(C)c2ccc(OCC(O)COC(=O)C(=C)C)cc2)cc1 (stereo not shown) [Bisphenol A glycidyl methacrylate] | -118% | 15.8 µM | 38.1 ± 9.22 µM | -70±50% | -121±28% | 12.2 ± 11.9 µM |  |  |  |  |  |  |  |  |  | 
11 | C=C1CC[C@H](O)C/C1=C/C=C1\CCC[C@]2(C)[C@@H]([C@H](C)CCCC(C)C)CC[C@@H]12 [Vitamin D3] | inactive |  |  | inactive | inactive |  |  | inactive | inactive | inactive |  |  |  |  |  | 
12 | Cc1ccc(S(=O)(=O)NC2CCCCC2)cc1 [N-Cyclohexyl-4-methyl benzenesulfonamide] | inactive |  | 38.1 ± 25.6 µM | -46±15% | -83±10% |  | 36.1 ± 21 µM | inactive |  |  |  |  |  |  |  | 
13 | CNC(=O)c1cc(Oc2ccc(NC(=O)Nc3ccc(Cl)c(C(F)(F)F)c3)cc2)ccn1 | -92% | 1.23 µM | 2.25 ± 0.63 µM | -72±24% |  |  | 0.96 ± 0.09 µM |  |  |  |  |  |  |  |  | 
14 | Cc1cnc(NC(=O)C2=C(O)c3ccccc3S(=O)(=O)N2C)s1 [Meloxicam] | inactive |  |  | inactive |  |  | 14.5 µM | inactive | inactive |  |  |  |  |  |  | 
15 | Cl.Nc1ccc(/N=N/c2ccccc2)c(N)c1 [C.I. Basic orange 2] |  |  |  | -34±7% | -82±19% | 7.53 ± 5.61 µM |  |  |  |  | -113% | 19.9 µM | 24.9 ± 21.1 µM |  |  | 
16 | O=C(Nc1cccc([N+](=O)[O-])c1)c1cc2ccccc2cc1O | -93% | 0.28 µM | 1.6 ± 0.26 µM | -89±5% | -91±2% | 0.24 ± 0.09 µM |  |  |  |  |  |  |  |  |  | 
17 | CN(N=O)c1ccc([N+](=O)[O-])cc1 [N-Nitroso-N-methyl-4-nitroaniline] | inactive |  | 20 ± 16.6 µM | -69+6% | inactive |  |  | inactive |  | inactive |  |  |  |  |  | 
18 | O=[N+]([O-])c1ccc(F)c([N+](=O)[O-])c1 [1-Fluoro-2,4-dinitrobenzene] | -103% | 5.48 µM | 8.3 ± 5.67 µM | -68±38% | -104±8% | 3.71 ± 0.6 µM |  |  |  |  |  |  |  |  |  | 
19 | COc1ccc(O)c(C(C)(C)C)c1 [Compound 2-tert-Butyl-4-methoxyphenol] |  | 35.5 µM | 36.5 ± 19.2 µM | -53±11% | -92±3% | 25.3 ± 1.71 µM |  |  |  |  |  |  |  |  |  | 
20 | CCc1ccc(CCOc2ccc(CC3SC(=O)NC3=O)cc2)nc1 (stereo not shown) [Pioglitazone hydrochloride] | inactive |  |  | -69+30% | inactive |  |  | inactive |  | inactive |  |  |  | 8.9 ± 9.2 µM |  | 
21 | C[C@]12CC[C@@H]3c4ccc(O)cc4CC[C@H]3[C@@H]1CC[C@@H]2OP(=O)(O)O [Estradiol phosphate] | inactive |  |  | inactive | inactive |  |  | inactive | inactive | inactive |  |  |  |  |  | 
22 | CN(C)c1ccc2nc3ccc(=[N+](C)C)cc-3sc2c1 [Methylene blue trihydrate] | -69% | 4.82 µM |  | -93±3% | -67±11% |  | 1.31 ± 0.79 µM |  |  |  |  |  |  | 7.29 ± 7.49 µM |  | 
23 | CC(C)C[C@@H]1NC(=O)[C@H](CCCN)NC(=O)[C@H](C(C)C)NC(=O)[C@@H]2CCCN2C(=O)[C@@H](Cc2ccccc2)NC(=O)[C@H](CC(C)C)NC(=O)[C@H](CCCN)NC(=O)[C@H](C(C)C)NC(=O)[C@@H]2CCCN2C(=O)[C@@H](Cc2ccccc2)NC1=O [gramicidin, reference compound] (cyclo(L[dF]PV[Orn]L[dF]PV[Orn])) | -121% |  |  | -112±28% | -86±3% |  | 0.51 ± 0.42 µM |  |  |  |  |  |  |  |  | 
24 | CCN(CC)C(=S)[S-].CCN(CC)C(=S)[S-].[Zn+2] [Zinc diethyldithiocarbamate] | -63% |  |  | -95±12% | -70±15% |  |  |  |  |  |  |  |  |  |  | 
25 | Cc1cc2nc3c(=O)[nH]c(=O)nc-3n(C[C@H](O)[C@H](O)[C@H](O)CO)c2cc1C [Riboflavin] |  |  |  | -97±58% | -113±7% |  | 7.02 ± 1.78 µM |  |  |  |  |  |  | 31.3 ± 8.72 µM | 11.2 µM | 86%
26 | Nc1ccc2cc3ccccc3cc2c1 [Compound 2-Aminoanthracene] |  |  |  | -51±35% | -72±12% | 4.71 ± 1.92 µM |  |  |  |  |  |  |  | 0.18 ± 0.2 µM | 3.55 µM | 73%
27 | CC(C)C[C@H]1C(=O)N2CCC[C@H]2[C@]2(O)O[C@](NC(=O)[C@@H]3C=C4c5cccc6[nH]c(Br)c(c56)C[C@H]4N(C)C3)(C(C)C)C(=O)N12 [Bromocriptine] |  |  |  | -68±7% | -112±8% | 11.4 ± 1.58 µM |  |  |  |  |  |  |  | 13.2 ± 10.8 µM | 21.8 µM | 121%
28 | C[C@H]1CCCC(=O)CCC/C=C/c2cc(O)cc(O)c2C(=O)O1 [Zearalenone] |  |  |  | -68±24% | -110±22% |  | 4.67 ± 1.77 µM |  |  |  |  |  |  | 22 ± 1.79 µM | 5.84 µM | 115%
29 | CC1(C)CCC(C)(C)c2cc(NC(=O)c3ccc(C(=O)O)cc3)ccc21 [Tamibarotene] |  |  |  | -75±57% | -128±10% |  | 25.7 ± 1.05 µM |  |  |  |  |  |  | 9.06 ± 6.66 µM | 13.8 µM | 95%
